Molecules are shown by their SMILES.

Holding throughout (assay type): functional
What all share (conditions): 720 h

For assay [1], the system named is Mus musculus. The experiment in a line: The percentage 30-day survival of the mice at 300 mg/kg dose, with the radiation dose of 10 GY.
In assay [2] the test system is Mus musculus. Put plainly: The percentage 30-day survival of the mice at 600 mg/kg dose, with the radiation dose of 10 GY.
The test system of assay [3] is Mus musculus. Put plainly: The percentage 30-day survival of the mice at 150 mg/kg dose, with the radiation dose of 10 Gy.
In assay [4] the test system is Mus musculus. Put plainly: The percentage 30-day survival of the mice at 75 mg/kg dose, with the radiation dose of 10 Gy.

Take `NCCCNCCSP(=O)(O)O` [AMIFOSTINE]: in assay [1], the survival at 300 mg/kg is 100%. Moreover, the survival at 600 mg/kg in assay [2] worked out at 100%. The compound further registered a survival at 150 mg/kg in assay [3] of 40%. In assay [4], this compound returned a survival at 75 mg/kg of 40%.

Source of the values: ChEMBL document CHEMBL1124909 (J Med Chem, 1990).
